The subject of assay [1] is PPC1, human prostate cancer. Put plainly: Thapsigargin-induced death of PPC1 cells, ATP content assay. The format is cell-based. As for the experimental part:
In addition to CSM14.1 cells, when tested at 25 μM, Compound 5962123 protected by >50% against thapsigargin-induced death of several tumor cell lines (HeLa human cervical cancer, SW1 melanoma cell, PPC1, human prostate cancer), mouse neural stem cell C17.2 (both differentiated [neuronal phenotype] and non-differentiated [stem cell phenotype]) as determined by ATP content assay, and primary rat cortical neurons as determined by microscopy assay measuring the percentage of NeuN-immunopositive cells with either normal or apoptotic nuclear morphology (Hoechst dye staining).
For PC12, cells were stimulated with 20 ng/ml NGF for five days; for C17.2, cells were stimulated with serum reduction, and 1% N2 incubation for three days; for CSM14.1, cells were cultured at 39° C. for 5-7 days.

The subject of assay [2] is ATF6. Put plainly: ATF6 proteolytic processing (immunoblotting). The format is cell-based, rat. As to conditions: immunoblotting to detect cleaved form; listed as CID-2878746. From the text:
After confirming the pathway selectivity of compounds, additional downstream assays can be performed to map the specific signal transduction pathway inhibited by the compounds. In this regard, various antibody reagents are commercially available for assessing the status of the three major pathways known to be activated by ER stress: (1) PERK, (2) Ire1, and (3) ATF6 (Xu et al., J. Clinical Invest., 115:2656-2664, 2005). Immunoblotting experiments can be performed to assess the expression or phosphorylation (using phospho-specific antibodies) of marker proteins in these pathways. […] Cell lysates were prepared and analyzed by SDS-PAGE/immunoblotting using antibodies specific for phospho-c-Jun, phospho-eIF2α, phospho-p38 MAPK, and tubulin (a loading control). […] After two hrs, cell lysates were prepared, normalized for protein content, and either analyzed by SDS-PAGE/immunoblotting using anti-p38-MAPK pan-reactive antibody or phospho-specific antibody with ECL-based detection, followed by densitometry analysis of x-ray films, normalizing phosphor-p38 MAPK relative to total p38 MAPK, or analyzed using a meso-scale instrument from MSD and a procedure in which total p38 MAPK is captured on plates, and the relative amounts of phosphorylated protein were determined using phospho-specific antibody (MSD catalog #K15112D1). […]

Assay [3] concerns CHOP. Put plainly: Thapsigargin-induced expression of CHOP. Type of assay: cell-based, rat. The following applies: listed as CID-2878746. As for the experimental part:
CSM 14.1 cells were cultured with DMSO or with 25 μM of hit compounds for two hours followed by treatment with thapsigargin (15 μM). Cell lysates were prepared and analyzed by SDS-PAGE/immunoblotting using antibodies specific for: c-Jun, phosphor-c-Jun (ser 73), eIF2a, phosphor-eIF2a (ser 51), p38 MAPK, phosphor-p38 MAPK (Thr180/Tyr182), ATF-6, CHOP and tubulin (loading control). ER stress-induced activation of C-Jun and p38 MAPK is suppressed by the 11 hit compounds.

Where only a bound is given, the exact number is not on record here.

On to `CCN(CC)c1ccc(C2Nc3ccccc3NC3=C2C(=O)CC(c2ccccc2)C3)cc1` (centres unmarked) [Compound 5962123, 6-(4-diethylaminophenyl)-9-phenyl-5,6,8,9,10,11-hexahydrobenzo[c][1,5]benzodiazepin-7-one], for which, in assay [1] (25 μM, ATP content assay), the “Protection against thapsigargin-induced death, PPC1” value is greater than 50%. The “Cytoprotective activity in thapsigargin-treated PPC-1” value in assay [1] (ATP content assay) is recorded as “demonstrated”. In addition, the “Cytoprotective activity, PPC1 (Result)” value in assay [1] (thapsigargin 15 μM, ATP content, compound ≦25 μM) is “+ (+indicates >50% rescue of cell viability relative to untreated cells not exposed to thapsigargin at compound concentration of ≦25 μM)”. Besides, the “ATF6 proteolytic processing” value in assay [2] was “not inhibited”. Also, the “Thapsigargin-induced expression of CHOP” value in assay [3] is on record as “not inhibited”.

The record behind these values is patent US20080293699A1, “Inhibitors of thapsigargin-induced cell death” (priority 2007, published 2008).
